The results in this text go back to PMC11978679, “Pyrazolyl amide-chalcones conjugates: Synthesis and antikinetoplastid activity” (Naunyn-Schmiedeberg's Archives of Pharmacology, 2024).

For series [1], the system named is Leishmania infantum (intracellular amastigotes). The series can be described thus: In vitro anti-Leishmania assay in primary peritoneal mouse macrophages (Giemsa, microscopy). Conditions: Macrophage, 120 h, read-out: IC50 L. infantum.
Series [2] deals with Trypanosoma cruzi (intracellular amastigotes). In words: In vitro anti-parasitic assay, T. cruzi (β-galactosidase/CPRG readout). Conditions: TULAHUEN, MRC-5 SV2, read-out: IC50 T. cruzi.
The test system of series [3] is human lung fibroblasts (MRC-5). In words: In vitro cytotoxicity assay, MRC-5SV2 cells (resazurin). Type of series: cell-based. Conditions: for IC50: Homo sapiens, MRC5, 72 h, cytotoxicity, lung fibroblast, 3 days. How it is done:
(§1) Briefly, 1.5 × 10^5 cells/mL cells were cultured with compound dilutions at 37 °C and with 5% CO2. Cell growth was compared to untreated-control wells (100% cell growth) and medium-control wells (0% cell growth). After 3 days incubation, cell viability was assessed fluorometrically after addition of 50 μL resazurin per well. […] The results were expressed as % reduction in cell growth/viability compared to control wells and an IC50 value was determined.
For orientation: The colour change of resazurin is a common sign of viable cells or microbes.

The test system of series [4] is Trypanosoma brucei rhodesiense (blood stream trypomastigotes). In words: Drug susceptibility resazurin assay, T. b. rhodesiense. The settings on record: 72 h, read-out: IC50 T. b. rhodesiense.
Series [5] has as its system Trypanosoma brucei brucei (blood stream trypomastigotes). The series can be described thus: Drug susceptibility resazurin assay, T. b. brucei. Conditions: 72 h, read-out: IC50 T. b. brucei.
Series [6] relates to primary mouse macrophages (PMMs). The series can be described thus: In vitro cytotoxicity against primary mouse macrophages. Type of series: cell-based. Conditions: for IC50: Macrophage, cytotoxicity, primary mouse macrophages.
The nature of series [7]: In vitro cytotoxicity assay, MRC-5SV2 cells (resazurin). Conditions: human, MRC-5SV2 cells (human lung fibroblasts); cytotoxicity; read-out: CC50 against MRC-5. Type of series: cell-based, human. How it is done:
as §1

With `O=C(/C=C/c1cccc([N+](=O)[O-])c1)c1ccc(NC(=O)c2cn(-c3ccccc3)nc2-c2ccccc2)cc1` [Compound 9k, (E)-N-(4-(3-(3-nitrophenyl)acryloyl)phenyl)-1,3-diphenyl-1H-pyrazole-4-carboxamide], the IC50 in series [1] was 45.2 µM; in series [2], more than 64 µM; in series [3] it was 19.4 µM; in series [4], 8.22 µM; in series [5], 6.69 µM; in series [6], more than 64 µM.
Turning to `COc1ccc(/C=C/C(=O)c2ccc(NC(=O)c3cn(-c4ccccc4)nc3-c3ccccc3)cc2)cc1` [Compound 9d, (E)-N-(4-(3-(4-methoxyphenyl)acryloyl)phenyl)-1,3-diphenyl-1H-pyrazole-4-carboxamide], the melting point lay in the range of 174 to 175 °C. In addition, the IC50 in series [1] was found to be 31.8 ± 19.1 µM. In addition, the IC50 in series [2] is more than 64 µM. The same molecule returned an IC50 in series [3] of more than 64 µM. Besides, the 50% inhibitory concentration (IC50) in series [4] is 0.69 ± 0.31 µM. The IC50 in series [5] came out at 1.64 ± 0.12 µM. For the same molecule, in series [6], the half-inhibitory concentration (IC50) is more than 64 µM.
For `O=C(/C=C/c1ccc2c(c1)OCO2)c1ccc(NC(=O)c2cn(-c3ccccc3)nc2-c2ccccc2)cc1` [Compound 9n, (E)-N-(4-(3-(benzo[d][1,3]dioxol-5-yl)acryloyl)phenyl)-1,3-diphenyl-1H-pyrazole-4-carboxamide], the melting point was 182 to 183 °C. Besides, the IC50 in series [1] is more than 57.4 µM. For the same molecule, the half-maximal inhibitory concentration (IC50) in series [2] was more than 64 µM. Besides, in series [3], the “cytotoxicity against human lung fibroblasts (MRC-5), in words” value (“cytotoxicity … (MRC-5), in words” for short) is given as “non-cytotoxic” and it took 64 µM to reach half-maximal inhibition (IC50). Besides, in series [4], the IC50 came to 0.46 ± 0.07 µM. The IC50 in series [5] was determined as 3.44 ± 2.88 µM. In series [6], the “cytotoxicity against primary mouse macrophages (PMMs), in words” value (shortened to “cytotoxicity … (PMMs), in words”) was “non-cytotoxic” and the 50% inhibitory concentration (IC50) is more than 64 µM.
For the molecule `CCCCCCCCCCCCCCCCOP(=O)([O-])OCC[N+](C)(C)C` [Miltefosine, reference compound], in series [1], the 50% inhibitory concentration (IC50) is 7.13 µM.
On to `Cc1ccccc1/C=C/C(=O)c1ccc(NC(=O)c2cn(-c3ccccc3)nc2-c2ccccc2)cc1` [Compound 9b, (E)-1,3-diphenyl-N-(4-(3-(o-tolyl)acryloyl)phenyl)-1H-pyrazole-4-carboxamide], for which the IC50 was 18.7 ± 9.18 µM in series [1]; more than 64 µM in series [2]; more than 64 µM in series [3]; 0.54 ± 0.24 µM in series [4]; 0.51 ± 0.06 µM in series [5]; more than 36 µM in series [6]. Further, the “cytotoxicity … (MRC-5), in words” value in series [3] is recorded as “non-cytotoxic”. For the same molecule, the “cytotoxicity … (PMMs), in words” value in series [6] is on record as “non-cytotoxic”.
In series [3], `COc1cccc(/C=C/C(=O)c2ccc(NC(=O)c3cn(-c4ccccc4)nc3-c3ccccc3)cc2)c1` [Compound 9c, (E)-N-(4-(3-(3-methoxyphenyl)acryloyl)phenyl)-1,3-diphenyl-1H-pyrazole-4-carboxamide] returned an IC50 of 10.7 µM. The CC50 at 3 days in series [7] turned out to be 10.7 µM.
As to `O=C(/C=C/c1cccc(F)c1)c1ccc(NC(=O)c2cn(-c3ccccc3)nc2-c2ccccc2)cc1` [Compound 9h, (E)-N-(4-(3-(3-fluorophenyl)acryloyl)phenyl)-1,3-diphenyl-1H-pyrazole-4-carboxamide], the half-maximal inhibitory concentration (IC50) is 21 ± 11 µM in series [1]; more than 64 µM in series [2]; 24.8 µM in series [3]; 1.56 ± 0.11 µM in series [4]; 6.36 ± 0.11 µM in series [5]; more than 48 µM in series [6].
For `Cc1ccc(C(=O)Nc2ccc(S(=O)(=O)O)c3cc(S(=O)(=O)O)cc(S(=O)(=O)O)c23)cc1NC(=O)c1cccc(NC(=O)Nc2cccc(C(=O)Nc3cc(C(=O)Nc4ccc(S(=O)(=O)O)c5cc(S(=O)(=O)O)cc(S(=O)(=O)O)c45)ccc3C)c2)c1` [Suramine, reference compound], the IC50 in series [4] was determined as 0.05 µM; in series [5] it was 0.04 µM.
Consider `O=C(/C=C/c1ccc(Br)cc1)c1ccc(NC(=O)c2cn(-c3ccccc3)nc2-c2ccccc2)cc1` [Compound 9e, (E)-N-(4-(3-(4-bromophenyl)acryloyl)phenyl)-1,3-diphenyl-1H-pyrazole-4-carboxamide], for which the 50% inhibitory concentration (IC50) in series [1] was more than 46.8 µM; in series [2], more than 64 µM; in series [3], 34.9 µM; in series [4], 1.37 ± 0.02 µM; in series [5], 1.13 ± 0.63 µM; in series [6], more than 64 µM.
In the case of `O=C(/C=C/c1ccccc1Cl)c1ccc(NC(=O)c2cn(-c3ccccc3)nc2-c2ccccc2)cc1` [Compound 9f, (E)-N-(4-(3-(2-chlorophenyl)acryloyl)phenyl)-1,3-diphenyl-1H-pyrazole-4-carboxamide], the IC50 in series [1] is 18.7 ± 9.18 µM; in series [2], 13.4 ± 4.95 µM; in series [3], more than 64 µM; in series [4], 0.81 ± 0.09 µM; in series [5], 0.6 ± 0.33 µM; in series [6], more than 64 µM.
`O=C(/C=C/c1ccc(Cl)c(Cl)c1)c1ccc(NC(=O)c2cn(-c3ccccc3)nc2-c2ccccc2)cc1` [Compound 9j, (E)-N-(4-(3-(3,4-dichlorophenyl)acryloyl)phenyl)-1,3-diphenyl-1H-pyrazole-4-carboxamide] yielded a melting point of 200 to 201 °C. Besides, in series [1], the IC50 was more than 64 µM. Moreover, the IC50 in series [2] turned out to be 46.1 µM. In series [3], this molecule yielded a half-inhibitory concentration (IC50) of 22.3 µM. Further, the half-maximal inhibitory concentration (IC50) in series [4] worked out at 4.52 µM. Also, in series [5], the concentration for half-maximal inhibition (IC50) was found to be 4.63 µM. For the same molecule, the concentration for half-maximal inhibition (IC50) in series [6] was more than 64 µM.
Molecule `O=C(/C=C/c1cccs1)c1ccc(NC(=O)c2cn(-c3ccccc3)nc2-c2ccccc2)cc1` [Compound 9l, (E)-1,3-diphenyl-N-(4-(3-(thiophen-2-yl)acryloyl)phenyl)-1H-pyrazole-4-carboxamide] had a melting point of 210 to 211 °C. Also, the IC50 in series [1] is more than 53.5 µM. Also, in series [2], the half-inhibitory concentration (IC50) is more than 64 µM. Besides, the IC50 in series [3] came out at 39.2 µM. For the same molecule, the IC50 in series [4] is 2.7 ± 0.03 µM. The IC50 in series [5] is 13.2 ± 19 µM. This molecule displayed a 50% inhibitory concentration (IC50) in series [6] of more than 64 µM.
In series [3], `O=C(/C=C/c1cccc(Cl)c1)c1ccc(NC(=O)c2cn(-c3ccccc3)nc2-c2ccccc2)cc1` [Compound 9g, (E)-N-(4-(3-(3-chlorophenyl)acryloyl)phenyl)-1,3-diphenyl-1H-pyrazole-4-carboxamide] returned an IC50 of 6.2 µM. In series [7], the half-maximal cytotoxic concentration (CC50) at 3 days was determined as 6.2 µM.
For `O=C(/C=C/c1ccc(F)cc1)c1ccc(NC(=O)c2cn(-c3ccccc3)nc2-c2ccccc2)cc1` [Compound 9i, (E)-N-(4-(3-(4-fluorophenyl)acryloyl)phenyl)-1,3-diphenyl-1H-pyrazole-4-carboxamide], the half-inhibitory concentration (IC50) in series [1] was more than 37.4 µM; in series [2], more than 54.2 µM; in series [3], more than 64 µM; in series [4] it was 1.12 ± 0.74 µM; in series [5] it was 0.78 ± 0.26 µM; in series [6], more than 64 µM.
For the molecule `O=C(C=Cc1ccccc1)c1ccc(NC(=O)c2cn(-c3ccccc3)nc2-c2ccccc2)cc1` [Compound 9a, N-(4-cinnamoylphenyl)-1,3-diphenyl-1H-pyrazole-4-carboxamide], the melting point fell in the range of 160 to 161 °C. Also, the concentration for half-maximal inhibition (IC50) in series [1] came to 7.16 ± 1.88 µM. Moreover, in series [2], the IC50 is more than 53.2 µM. Also, in series [3], the “cytotoxicity … (MRC-5), in words” value was “non-cytotoxic” and the IC50 is more than 64 µM. Also, the IC50 in series [4] stood at 0.96 ± 0.49 µM. For the same molecule, the concentration for half-maximal inhibition (IC50) in series [5] came out at 0.77 ± 0.27 µM. In series [6], the “cytotoxicity … (PMMs), in words” value is “non-cytotoxic” and inhibition was half-maximal at 32 µM (IC50).
As to `O=C(Cn1ccnc1[N+](=O)[O-])NCc1ccccc1` [Benznidazole, reference compound], the 50% inhibitory concentration (IC50) in series [2] is 1.35 µM.

For orientation: IC50 means the concentration needed to halve the response being measured. The melting point is the temperature, or range, at which the solid turns liquid. One may read the CC50 as the concentration at which the toxic effect on the cells reaches its halfway point.
